Laboratory results: ChEMBL document CHEMBL3994582, “A2B adenosine receptor antagonists: Design, synthesis and biological evaluation of novel xanthine derivatives” (Eur J Med Chem, 2017)
pKi: −log10 of the molar value.

Legend:
Liver [1] = assay: Metabolic stability in mouse liver microsomes assessed as metabolic rate per mg protein preincubated for 5 mins followed by NADPH addition measured up to 30 mins by LC-MS/MS analysis; assay type: ADME, microsome; conditions: 0.5 h
[2] = target: T1, Adenosine receptor A3 (Homo sapiens) (UniProt P0DMS8); assay: Displacement of [3H]-HEM-ADO from human adenosine receptor A3 expressed in HEK293 cell membranes at 1 uM after 90 mins by liquid scintillation counting method relative to control
T1 sequence (whole entry): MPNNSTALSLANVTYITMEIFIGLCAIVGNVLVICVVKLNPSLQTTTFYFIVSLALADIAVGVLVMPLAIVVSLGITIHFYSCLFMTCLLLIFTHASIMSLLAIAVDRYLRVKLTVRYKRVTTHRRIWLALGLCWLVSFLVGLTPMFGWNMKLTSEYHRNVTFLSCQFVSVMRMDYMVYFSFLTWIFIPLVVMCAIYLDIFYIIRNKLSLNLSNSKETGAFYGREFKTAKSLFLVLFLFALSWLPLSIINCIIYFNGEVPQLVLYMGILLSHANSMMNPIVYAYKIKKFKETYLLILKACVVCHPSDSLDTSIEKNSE

[3] = target: T2, Adenosine receptor A1 (Homo sapiens) (UniProt P30542); assay: Displacement of [3H]DPCPX from human adenosine receptor A1 expressed in HEK293 cell membranes at 0.1 uM after 90 mins by liquid scintillation counting method relative to control
T2 sequence (whole entry): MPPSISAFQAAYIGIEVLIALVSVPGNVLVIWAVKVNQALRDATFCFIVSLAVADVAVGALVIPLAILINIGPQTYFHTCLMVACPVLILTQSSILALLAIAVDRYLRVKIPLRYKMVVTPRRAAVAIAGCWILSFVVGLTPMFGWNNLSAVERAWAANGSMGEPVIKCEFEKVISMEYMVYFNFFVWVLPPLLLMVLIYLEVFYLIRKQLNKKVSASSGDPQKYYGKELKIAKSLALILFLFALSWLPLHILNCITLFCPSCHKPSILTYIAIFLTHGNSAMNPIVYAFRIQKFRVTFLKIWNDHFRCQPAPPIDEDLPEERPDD

Adenosine receptor A2b = target: T3, Adenosine receptor A2b (Homo sapiens, UniProt P29275); assay: Displacement of [3H]-MRS-1754 from human adenosine receptor A2b expressed in HEK293 cell membranes after 90 mins by liquid scintillation counting method
T3 sequence (P29275 whole entry): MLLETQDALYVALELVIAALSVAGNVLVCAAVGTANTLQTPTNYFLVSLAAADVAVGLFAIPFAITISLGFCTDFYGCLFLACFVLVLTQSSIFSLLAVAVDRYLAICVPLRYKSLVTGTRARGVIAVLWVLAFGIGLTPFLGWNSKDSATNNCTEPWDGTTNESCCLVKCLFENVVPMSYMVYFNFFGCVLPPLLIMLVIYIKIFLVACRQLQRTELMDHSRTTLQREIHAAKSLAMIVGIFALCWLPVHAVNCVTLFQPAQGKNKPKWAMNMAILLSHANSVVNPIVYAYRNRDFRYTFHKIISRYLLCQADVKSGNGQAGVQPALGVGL

Adenosine receptor A2a = Adenosine receptor A2a (Homo sapiens, UniProt P29274); assay: Displacement of [3H]-ZM-241385 from human adenosine receptor A2a expressed in HEK293 cell membranes at 0.1 uM after 90 mins by liquid scintillation counting method relative to control
Chain of Adenosine receptor A2a (P29274 whole entry): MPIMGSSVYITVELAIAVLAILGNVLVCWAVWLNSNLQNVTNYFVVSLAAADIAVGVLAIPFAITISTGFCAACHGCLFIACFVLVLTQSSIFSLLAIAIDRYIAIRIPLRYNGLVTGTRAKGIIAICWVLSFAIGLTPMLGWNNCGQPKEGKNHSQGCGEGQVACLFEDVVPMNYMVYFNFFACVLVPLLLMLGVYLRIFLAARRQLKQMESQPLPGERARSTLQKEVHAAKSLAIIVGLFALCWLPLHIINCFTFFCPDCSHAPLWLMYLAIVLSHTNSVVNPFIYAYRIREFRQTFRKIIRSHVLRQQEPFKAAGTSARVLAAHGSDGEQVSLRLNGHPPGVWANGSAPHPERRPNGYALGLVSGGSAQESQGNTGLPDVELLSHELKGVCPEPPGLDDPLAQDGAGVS

Liver [4] = assay: Metabolic stability in human liver microsomes assessed as metabolic rate per mg protein preincubated for 5 mins followed by NADPH addition measured up to 30 mins by LC-MS/MS analysis; assay type: ADME, microsome; conditions: 0.5 h

| SMILES | Drug metabolism (Liver [1]) | inhibition [2] | inhibition [3] | pKi (Adenosine receptor A2b) | inhibition (Adenosine receptor A2a) | Drug metabolism (Liver [4]) |
| --- | --- | --- | --- | --- | --- | --- |
| CCCn1c(=O)c2[nH]c(-c3cnn(CC4CCN(c5ccc(C)cc5)C4)c3)nc2n(CCC)c1=O (centres undefined) | 0.38 nmol/min/mg | 2% | 26% | 7.92 | 51% | 0.66 nmol/min/mg |
| CCCn1c(=O)c2[nH]c(-c3cc(OCC4CC(=O)N(c5ccc(F)cc5)C4)no3)nc2n(CCC)c1=O (centres undefined) | – | 7% | 0% | 6.68 | 0% | – |
| CCCn1c(=O)c2[nH]c(-c3cnn(CC4CC(=O)N(c5cccc(OC(F)(F)F)c5)C4)c3)nc2n(CCC)c1=O (centres undefined) | 0.57 nmol/min/mg | 0% | 20% | 8.05 | 49% | 0.23 nmol/min/mg |
| CCCn1c(=O)c2[nH]c(-c3cnn(CC4CC(=O)N(c5ccc(C#N)cc5)C4)c3)nc2n(CCC)c1=O (centres undefined) | 0 nmol/min/mg | 2% | 18% | 7.64 | 20% | 0.15 nmol/min/mg |
| CCCn1c(=O)c2[nH]c(-c3cnn(CC4CCN(c5cccc(C(F)(F)F)c5)C4=O)c3)nc2n(CCC)c1=O (centres undefined) | 0.34 nmol/min/mg | 17% | 58% | 8.22 | 30% | 0.2 nmol/min/mg |
| CCCn1c(=O)c2[nH]c(-c3cnn(CC(=O)N4CCN(c5ccc(C)cc5)CC4)c3)nc2n(CCC)c1=O | – | 11% | 58% | 8.30 | 58% | – |
| CCCn1c(=O)c2[nH]c(-c3cnn(CC4CC(=O)N(c5ccc(F)cc5F)C4)c3)nc2n(CCC)c1=O (centres undefined) | 0.48 nmol/min/mg | 0% | 13% | 7.72 | 45% | 0.03 nmol/min/mg |
| CCCn1c(=O)c2[nH]c(-c3cnn(CC4CC(=O)N(c5cccc(OC(F)(F)F)c5)C4)c3)nc2n(CC)c1=O (centres undefined) | 0.25 nmol/min/mg | 3% | 15% | 7.76 | 16% | 0.4 nmol/min/mg |
| CCCn1c(=O)c2[nH]c(-c3cnn(CC4CCN(c5cccc(F)c5)C4=O)c3)nc2n(CCC)c1=O (centres undefined) | – | – | – | 7.37 | – | – |
| CCCn1c(=O)c2[nH]c(-c3cnn(CC4CCN(c5cccc(C(F)(F)F)c5)C4)c3)nc2n(CCC)c1=O (centres undefined) | 0 nmol/min/mg | 2% | 38% | 8.44 | 57% | 0.01 nmol/min/mg |
| CCCn1c(=O)c2[nH]c(-c3cc(OCC4CC(=O)N(c5cccc(F)c5)C4)no3)nc2n(CCC)c1=O (centres undefined) | – | – | – | 7.05 | – | – |
| CCCn1c(=O)c2[nH]c(-c3cnn(CC4CC(=O)N(c5cccc(F)c5)C4)c3)nc2n(CCC)c1=O (centres undefined) | 0.35 nmol/min/mg | 17% | 32% | 7.39 | 68% | 0.02 nmol/min/mg |
| CCCn1c(=O)c2[nH]c(-c3cnn(CC4CC(=O)N(c5cccc(C(F)(F)F)c5)C4)c3)nc2n(CCC)c1=O (centres undefined) | 0.61 nmol/min/mg | 31% | 25% | 8.19 | 48% | 0.18 nmol/min/mg |
| CCCn1c(=O)c2[nH]c(-c3cnn(CC(O)C4CC(=O)N(c5cccc(C(F)(F)F)c5)C4)c3)nc2n(CCC)c1=O (centres undefined) | 0.22 nmol/min/mg | 27% | 12% | 8.92 | 60% | 0.19 nmol/min/mg |
| CCCn1c(=O)c2[nH]c(-c3cnn(CCC4CC(=O)N(c5cccc(C(F)(F)F)c5)C4)c3)nc2n(CCC)c1=O (centres undefined) | 0.3 nmol/min/mg | 29% | 40% | 8.59 | 65% | 0.14 nmol/min/mg |
| CCCn1c(=O)c2[nH]c(-c3cnn(CC4CC(=O)N(c5cccc(F)c5)C4)c3)nc2n(CC)c1=O (centres undefined) | 0.29 nmol/min/mg | 0% | 30% | 7.62 | 37% | 0.06 nmol/min/mg |
| CCCn1c(=O)c2[nH]c(-c3cnn(CC4CC(=O)N(c5ccc(C)cc5)C4)c3)nc2n(CCC)c1=O (centres undefined) | 0.25 nmol/min/mg | 0% | 33% | 8.10 | 37% | – |
| CCCn1c(=O)c2[nH]c(-c3cnn(CC4CC(=O)N(c5cccc(C)c5)C4)c3)nc2n(CCC)c1=O (centres undefined) | 0.46 nmol/min/mg | 0% | 29% | 7.97 | 0% | 0.18 nmol/min/mg |
| CCCn1c(=O)c2[nH]c(-c3cnn(C(C)C4CC(=O)N(c5cccc(C(F)(F)F)c5)C4)c3)nc2n(CCC)c1=O (centres undefined) | 0.59 nmol/min/mg | 18% | 17% | 8.40 | 15% | 0.2 nmol/min/mg |
| CCCn1c(=O)c2[nH]c(-c3cnn(CC(=O)N4CCN(c5ccc(F)cc5F)CC4)c3)nc2n(CCC)c1=O | 0.23 nmol/min/mg | 0% | 45% | 7.97 | 56% | 0.11 nmol/min/mg |
| CCCn1c(=O)c2[nH]c(-c3cnn(CC4CC(=O)N(c5cccc(OC)c5)C4)c3)nc2n(CCC)c1=O (centres undefined) | 0.41 nmol/min/mg | 11% | 22% | 7.67 | 46% | 0.18 nmol/min/mg |
| CCCn1c(=O)c2[nH]c(-c3cc(OCC4CC(=O)N(c5cccc(C(F)(F)F)c5)C4)no3)nc2n(CCC)c1=O (centres undefined) | – | 5% | 0% | 7.16 | 0% | – |
| CCCn1c(=O)c2[nH]c(-c3cnn(CC4CC(=O)N(c5ccc(F)cc5)C4)c3)nc2n(CCC)c1=O (centres undefined) | 0.19 nmol/min/mg | 14% | 31% | 8.01 | 42% | 0.06 nmol/min/mg |
| CCCn1c(=O)c2[nH]c(-c3cnn(CC4CC(=O)N(c5ccc(OC(F)(F)F)cc5)C4)c3)nc2n(CCC)c1=O (centres undefined) | 0.24 nmol/min/mg | 0% | 23% | 8.40 | 24% | 0.13 nmol/min/mg |
| CCCn1c(=O)c2[nH]c(-c3cnn(CC(=O)N4CCN(c5ccc(F)c(Cl)c5)CC4)c3)nc2n(CCC)c1=O | – | 17% | 56% | 8.74 | 72% | – |
| CCCn1c(=O)c2[nH]c(-c3cnn(CC4CCN(c5ccc(OC(F)(F)F)cc5)C4)c3)nc2n(CCC)c1=O (centres undefined) | 0.15 nmol/min/mg | 2% | 23% | 7.85 | 26% | 0.16 nmol/min/mg |
| CCCn1c(=O)c2[nH]c(-c3cnn(CC4CC(=O)N(c5ccc(OC)cc5)C4)c3)nc2n(CCC)c1=O (centres undefined) | 0.22 nmol/min/mg | 27% | 38% | 8.05 | 51% | 0.19 nmol/min/mg |
| CCCn1c(=O)c2[nH]c(-c3cnn(CC(=O)N4CCN(c5ccc(C(F)(F)F)cc5)CC4)c3)nc2n(CCC)c1=O | – | 11% | 53% | 9.05 | 71% | – |
| CCCn1c(=O)c2[nH]c(-c3cnn(CC4CC(=O)N(c5cccc(C(F)(F)F)c5)C4)c3)nc2n(CC)c1=O (centres undefined) | 0.49 nmol/min/mg | 0% | 18% | 8.35 | 23% | 0.12 nmol/min/mg |
| CCCn1c(=O)c2[nH]c(-c3cnn(CC4CC(=O)N(c5ccc(C(=O)O)cc5)C4)c3)nc2n(CCC)c1=O (centres undefined) | – | – | – | 7.11 | – | – |
